Results from US7732450B2, “Antifungal ketoconazole composition for topical use” (Boult Wade Tennant, priority 2000, dated 2010).

Test: Solubility of ketoconazole in solvent media at room temperature
Assay type: physicochemical
Settings: for Solubility: room temperature (21° C.)
Procedure: The solubility of ketoconazole in each of isopropyl alcohol, water and polyethoxylated glyceryl cocoate were established at room temperature (21° C.).
The solubility of ketoconazole in a composition of the present invention, prepared as in Example 1, containing 55% isopropyl alcohol, 35% water and 10% polyethoxylated glyceryl cocoate was also established at room temperature (21° C.).

SMILES: CC(=O)N1CCN(c2ccc(OCC3COC(Cn4ccnc4)(c4ccc(Cl)cc4Cl)O3)cc2)CC1 (centres unmarked) [ketoconazole, 1-acetyl-4-[4-[2-(2,4-dichlorophenyl)-2-imidazol-1-ylmethyl-1,3-dioxolan-4-ylmethoxy]phenyl]piperazine]
- Solubility (in composition of 55% isopropyl alcohol, 35% water and 10% polyethoxylated glyceryl cocoate): 2.8 wt %
- Solubility (in isopropyl alcohol): 0.4722 wt %
- Solubility (in polyethoxylated glyceryl cocoate): 0.8682 wt %
- Solubility (in water): 0.0233 wt %
- Solubility of ketoconazole in three-component solvent system (ternary solvent system (water, alcohol, non-ionic surface active agent)): up to 3 wt %
